Results taken from US9120094B2, “Polymerization of bis[3-(diethoxyphosphoryl)propyl]diallylammonium chloride” (King Fahd University of Petroleum and Minerals, priority 2013, dated 2015).

Legend:
[1] = Solubility behavior of polymers in solvents; type: physicochemical; settings: water (salt-free)
Procedure: After stirring a mixture of PZ 5 or PZA 7 (2 w/w %) in a solvent at 70° C. […] Table II is presented below.

[2] = Potentiometric titration for protonation (basicity) constants; type: physicochemical; settings: monomer, 0.0175M NaCl at 23° C.
From the text: Procedure for the determination of the protonation constants (K1, K2 and K3) of the polyzwitterion/trianion (PZTAN) 10 (Z^±≡) and K1, K2 and K4 of its corresponding monomer ZTAN 15 (Z^±≡) by potentiometric titrations, carried out in an atmosphere of N2 in CO2-free water, is described elsewhere (Al-Muallem, H. A.; Wazeer M. I. M.; Ali, S. A. Polymer, 2002, 43, 4285—incorporated herein by reference in its entirety). A certain mmol of PZA 7 (ZH3^±) or 11 (ZH4^+) in 200 cm^3 of 0.0175 M NaCl was used in each trial (Tables 3 and 4). As the polymer was insoluble in salt-free water, it (≈100 mg) was first dissolved in 1 M NaCl (3.5 mL) and then diluted to 200 mL to make the polymer solution in 0.0175 M NaCl. For the sake of comparison the NaCl strength of water-soluble monomer 11 was also kept at 0.0175 M.
The Log K1, Log K2 and Log K3 of the respective protonation of ^2−O3P—X^+—PO3^2− [in (±≡) PZTAN 10], ^2O3P—X^+—PO3H^− [in (±=) (PZDAN) 9] and ^−HO3P—X^+—PO3H^− [(in (±−) plyzwitterion/anion (PZAN) 8] were calculated at each pH value by the Henderson-Hasselbalch eq 2 (Scheme 2) where the degree of protonation (α) is the ratios [ZH^±=]eq/[Z]o, [ZH2^±−]eq/[Z]o and [ZH3^±]eq/[Z]o, respectively. The [ZH^±=]eq, [ZH2^±−]eq and [ZH3^±]eq represent the respective equilibrium concentrations of the first (9), second (8) and third protonated species (7) whereas [Z]o describes the initial concentration of repeating units.
For the determination of the third step [8 (ZH2^±−)+H^+⇄7 (ZH3^±)] protonation constant (log K3) using the titration of PZA 7 [ZH3^±] with NaOH, α represents the ratio [ZH3^±]eq/[Z]o whereby [Z]o and [ZH3^±]eq are related by [ZH3^±]eq=[Z]o—COH^−—[H^+]+[OH^−], where COH^− represent the added NaOH concentration. The equilibrium [H^+] and [OH^−] values were calculated from the pH value. Continuing the titration, the second step [9 (ZH^±=)+H^+⇄8 (ZH2^±−)] protonation constant (log K2) was determined using volume of the titrant after deducting the equivalent volume from the total volume. […]

SMILES | Solubility in words [1] | Log Ki^o (log K4) ([2]; fourth step 12 (ZH3±) to 11 (ZH4+), approximate, 2[Z]o used) | Log Ki^o (log K2) ([2]; second step protonation) | Log Ki^o (log K1) ([2]; titration of 11 (ZH4+) with NaOH, first step protonation of 15)
C=CC[N+](CC=C)(CCCP(=O)(O)O)CCCP(=O)(O)O.[Cl-] [compound 11] | water-soluble |  |  | 
C=CC[N+](CC=C)(CCCP(=O)([O-])[O-])CCCP(=O)([O-])[O-].[Na+].[Na+].[Na+] [compound 15] |  | 2.30 | 7.43 | 9.78
